Reference: patent US3996359A, “Novel stereoisomeric component A of stereoisomeric mixtures of 2'-unsymmetrical 16,17-methylenedioxy steroid 21-acylates, compositions thereof, and method of treating therewith” (AB Bofors, priority 1972, dated 1976)

System: rats subjected to adrenalectomy (granuloma around implanted cotton wads)
Assay: granulom test (cotton-pellet test) on rats subjected to adrenalectomy: granuloma growth, thymus weight, body weight increase
Assay type: in vivo, rat (Sprague-Dawley)
Settings: for Dose required to obtain 50% inhibition of Granuloma growth: Table 3, adrenalectomized young male Sprague-Dawley rats, topical in implanted cotton wads, day 8; for Dose required to obtain 25% inhibition of Body weight Increase / Dose required to obtain 50% inhibition of Thymus weight: 11520 min
Source text: In the following this active stereoisomeric component will always be designated B. As regards the steroids referred to in connection with the present invention the stereoisomeric mixture as well as the individual stereoisomeric components A and B have been investigated with regard to antiinflammatory activity in granulom test on rats subjected to adrenalectomy. The experimental procedure used corresponds largely to that described by G. Engelhardt: Arzneimittel-Forschung, 13, p. 588, 1963. According to this procedure the test substances are applied topically in the implanted cottom wads. It is thereby possible to study the local antiinflammatory effect in granulomas and also systemic effects in the form of retrogression of thymus and inhibition of bodyweight growth.
Young male rats of the Sprague-Dawley strain weighing about 110-130 g were subjected to adrenalectomy under ether narcosis. Two sterilized cottom wads of each about 6 mg were implanted simultaneously subcutaneously on the lateral side of the spinal. After awakening the animals were stored 5 per cage and were supplied with normal food and 1% sodium chloride solution as drinking water. On the eighth test day the animals were sacrificed by ether narcosis. The granuloma formed around the cotton wads were carefully recovered and thymus and body weights were measured. The two granuloma from each animal were dried over night at 80° C and weighed. After subtraction of the initial weight of the cotton wads the weight increase was used as a measure of the granulom growth.
The test substances were used dissolved in ethyl acetate. Under aseptic conditions 0.05 ml of said solutions were injected into each of the cotton wads, whereafter the solvent was allowed to evaporate in the desiccator. Normally 3 concentrations of each test substance with the standard doses 3.3, 30 and 270 γ/animal were investigated. Each test group normally comprised 10 rats. The cotton wads of the control group were injected with only ethyl acetate, but were in other respects treated in the same way. When considering the effects of the test substances the average values of granulom growth, thymus weight and body weight increase day 0-8 were measured in each group in absolute figures and in % of the corresponding figure of the control group. Dose-response curves were drafted and used for estimating the doses giving 50 % reduction of granulom growth and of thymus weight and 25 % decrease of body weight increase.
The following Table 4 discloses the results of the cotton-pellet test hereinbefore described, giving in addition figures for the therapeutic ratios, that is, the ratios of the ED50 for thymus weight inhibition divided by the ED50 for granuloma formation inhibition, and the ED25 for body weight increase inhibition over the ED50 for granuloma formation inhibition. As will be recognized, the higher the number for the therapeutic ratio, the more favorable the therapeutic ratio. […] As will be noted for the table, the therapeutic ratio for thymus over granuloma for the Component A esters is 4.2, 7.1, 4.5, 2.6, 2.2, 1.7, 2.5 and 1.7 times as good as it is for the corresponding Component B ester isomer, whereas the therapeutic ratio for the Component A ester isomer as far as body weight is granuloma 2.7, 3.3, 9.8, 6.4, 2.3, 2.8, 3.3 and 2.8 times as favorable as for the corresponding Component B ester isomer.

[1] = Table 4, ED25 body weight increase inhibition over ED50 granuloma formation inhibition
[2] = Table 4, ED50 thymus weight inhibition divided by ED50 granuloma formation inhibition

Structure (SMILES) | Dose required to obtain 50% inhibition of Granuloma growth | Dose required to obtain 25% inhibition of Body weight Increase (rat, in vivo) | Dose required to obtain 50% inhibition of Thymus weight (rat, in vivo) | Therapeutic ratio body weight/granuloma [1] | Therapeutic ratio thymus/granuloma [2] | ED25 body weight increase inhibition (rat, in vivo) [µg/animal] | ED50 thymus weight inhibition (rat, in vivo) [µg/animal] | decrease of body weight growth at the dose giving 50% inhibition of granulom growth (rat, in vivo) | decrease of thymus weight at the dose giving 50% inhibition of granulom growth (rat, in vivo) | Therapeutic ratio body weight/granuloma (rat, in vivo) | Therapeutic ratio thymus/granuloma (rat, in vivo)
CC1O[C@@H]2C[C@H]3[C@@H]4CCC5=CC(=O)C=C[C@]5(C)[C@@]4(F)[C@@H](O)C[C@]3(C)[C@]2(C(=O)CO)O1 (single isomer, unassigned) [1 B] | 30 γ/animal | 30 γ/animal | 50 γ/animal |  |  |  |  |  |  |  | 
CCCC1OC2CC3C4CCC5=CC(=O)C=CC5(C)C4(F)C(O)CC3(C)C2(C(=O)CO)O1 (mixture of isomers) [3 A+B] | 10 γ/animal | > 30 γ/animal | > 30 γ/animal |  |  |  |  |  |  |  | 
CC1O[C@@H]2C[C@H]3[C@@H]4CCC5=CC(=O)C=C[C@]5(C)[C@@]4(F)[C@@H](O)C[C@]3(C)[C@]2(C(=O)CO)O1 (single isomer, unassigned) [1 A] | 270 γ/animal | 60 γ/animal | 115 γ/animal |  |  |  |  |  |  |  | 
CCCCCC1O[C@@H]2C[C@H]3[C@@H]4CCC5=CC(=O)C=C[C@]5(C)[C@H]4[C@@H](O)C[C@]3(C)[C@]2(C(=O)CO)O1 (single isomer, unassigned) [13 B] | 5 γ/animal | > 270 γ/animal | 210 γ/animal |  |  |  |  |  |  |  | 
CCCC1O[C@@H]2C[C@H]3[C@@H]4CCC5=CC(=O)C=C[C@]5(C)[C@H]4[C@@H](O)C[C@]3(C)[C@]2(C(=O)CO)O1 (some centres unmarked) [12 A+B] | 100 γ/animal | 80 γ/animal | 80 γ/animal |  |  |  |  |  |  |  | 
CCCC1O[C@@H]2C[C@H]3[C@@H]4CCC5=CC(=O)C=C[C@]5(C)[C@H]4[C@@H](O)C[C@]3(C)[C@]2(C(=O)CO)O1 (single isomer, unassigned) [12 A] | 125 γ/animal | > 270 γ/animal | 125 γ/animal |  |  |  |  |  |  |  | 
CC1O[C@@H]2C[C@H]3[C@@H]4C[C@H](F)C5=CC(=O)C=C[C@]5(C)[C@@]4(F)[C@@H](O)C[C@]3(C)[C@]2(C(=O)COC(=O)c2cc3ccccc3o2)O1 (some centres unmarked) [23 A] |  |  |  | > 3.3 | > 3.3 | 10 | 10 |  |  |  | 
CC1O[C@@H]2C[C@H]3[C@@H]4CCC5=CC(=O)C=C[C@]5(C)[C@@]4(F)[C@@H](O)C[C@]3(C)[C@]2(C(=O)COC(=O)c2cc3ccccc3o2)O1 (some centres unmarked) [16 A] | 5 γ/animal | > 45 γ/animal | 70 γ/animal | > 9.0 | 14.0 | > 45 | 70 |  |  |  | 
CC1(C)O[C@@H]2C[C@H]3[C@@H]4C[C@H](F)C5=CC(=O)C=C[C@]5(C)[C@@]4(F)[C@@H](O)C[C@]3(C)[C@]2(C(=O)CO)O1 [Fluocinolone acetonide, reference compound] | ~50 γ/animal | 20 γ/animal | 14 γ/animal |  |  |  |  | heavy decrease | heavy decrease |  | 
CCCC1OC2CC3C4CCC5=CC(=O)C=CC5(C)C4(F)C(O)CC3(C)C2(C(=O)COC(=O)c2cccnc2)O1 (mixture of isomers) [21 A+B] | 7 γ/animal | 10 γ/animal | 35 γ/animal |  |  |  |  |  |  |  | 
CCCC1O[C@@H]2C[C@H]3[C@@H]4C[C@H](F)C5=CC(=O)C=C[C@]5(C)[C@@]4(F)[C@@H](O)C[C@]3(C)[C@]2(C(=O)COC(=O)c2cc3ccccc3o2)O1 (single isomer, unassigned) [25 B] | < 3 γ/animal | 20 γ/animal | 7 γ/animal |  |  | 20 | 7 |  |  | > 2.9 | > 2.3
CCC1O[C@@H]2C[C@H]3[C@@H]4CCC5=CC(=O)C=C[C@]5(C)[C@@]4(F)[C@@H](O)C[C@]3(C)[C@]2(C(=O)CO)O1 (single isomer, unassigned) [2 A] | 25 γ/animal | 90 γ/animal | 130 γ/animal |  |  |  |  |  |  |  | 
CCC1OC2CC3C4CCC5=CC(=O)C=CC5(C)C4(F)C(O)CC3(C)C2(C(=O)CO)O1 (mixture of isomers) [2 A+B] | 35 γ/animal | 140 γ/animal | 100 γ/animal |  |  |  |  |  |  |  | 
CCCC1OC2CC3C4CCC5=CC(=O)C=CC5(C)C4C(O)CC3(C)C2(C(=O)COC(C)=O)O1 (mixture of isomers) [27 A+B] | < 3 γ/animal | 40 γ/animal | 60 γ/animal |  |  |  |  |  |  |  | 
CC1(C)O[C@@H]2C[C@H]3[C@@H]4CCC5=CC(=O)C=C[C@]5(C)[C@@]4(F)[C@@H](O)C[C@]3(C)[C@]2(C(=O)CO)O1 [Triamcinolone acetonide, reference compound] |  | 100 γ/animal | 70 γ/animal |  |  |  |  | heavy decrease | heavy decrease |  | 
CCCCC1O[C@@H]2C[C@H]3[C@@H]4CCC5=CC(=O)C=C[C@]5(C)[C@@]4(F)[C@@H](O)C[C@]3(C)[C@]2(C(=O)CO)O1 (single isomer, unassigned) [4 A] | < 3 γ/animal | 170 γ/animal | 100 γ/animal |  |  |  |  |  |  |  | 
CC1O[C@@H]2C[C@H]3[C@@H]4CCC5=CC(=O)C=C[C@]5(C)[C@@]4(F)[C@@H](O)C[C@]3(C)[C@]2(C(=O)CO)O1 (some centres unmarked) [1 A+B] | 120 γ/animal | > 270 γ/animal | 270 γ/animal |  |  |  |  |  |  |  | 
CCCCC1OC2CC3C4CCC5=CC(=O)C=CC5(C)C4(F)C(O)CC3(C)C2(C(=O)CO)O1 (mixture of isomers) [4 A+B] | < 3 γ/animal | 170 γ/animal | 70 γ/animal |  |  |  |  |  |  |  | 
CCCCC(=O)OCC(=O)[C@@]12OC(C)O[C@@H]1C[C@H]1[C@@H]3CCC4=CC(=O)C=C[C@]4(C)[C@@]3(F)[C@@H](O)C[C@@]12C (single isomer, unassigned) [18 B] | < 3 γ/animal | 10 γ/animal | 10 γ/animal |  |  | 10 | 10 |  |  | > 3.3 | > 3.3
CCCCC(=O)OCC(=O)[C@@]12OC(CCC)O[C@@H]1C[C@H]1[C@@H]3CCC4=CC(=O)C=C[C@]4(C)[C@@]3(F)[C@@H](O)C[C@@]12C (single isomer, unassigned) [22 A] | < 3 γ/animal | 33 γ/animal | 90 γ/animal |  |  | 33 | 90 |  |  | > 11.0 | > 30.0
CCCC1OC2CC3C4CCC5=CC(=O)C=CC5(C)C4(F)C(O)CC3(C)C2(C(=O)COC(=O)c2cc3ccccc3o2)O1 (mixture of isomers) [20 A+B] | < 3 γ/animal | 20 γ/animal | 25 γ/animal |  |  |  |  |  |  |  | 
